Reference: patent publication US9464113B2, “Anti-heparan sulfate peptides that block herpes simplex virus infection in vivo” (The Board of Trustees of the University of Illinois, priority 2010, dated 2016)
No end group written: not given here.

Tests used:
[1] = system: GFP-expressing HHV-8 (rHHV-8.152); test: HHV-8 infection assay in HCjE cells; format: cell-based, human herpesvirus-8; settings: for GFP-expression of HHV-8 (RFU): 48 h, fluorescence reader (FIG. 5C); for fluorescence from GFP virus replication (microscopy): fluorescent microscope (FIG. 5D)
Procedure: HCjE cells grown in chamber slides (Labteck) or in a 96 well plate were pre-treated with G1, G2, or control peptides for 60 min at room temperature followed by inoculation with recombinant rHHV-8.152, expressing the green fluorescent protein (GFP). Viera et al., J. Virol. 72:5182-5188 (2000). 48-hr post-infection, GFP-positive cells were visualized under microscope (Zeiss Axioverst 100M). HHV-8 infection was determined as relative fluorescence units (RFU) using GENios Pro plate reader (TECAN) at 480-nm excitation and 520-nm emission frequencies. Five measurements of negative control, positive control, and the test samples were performed. Data were expressed as mean±SD.
The ability to block HHV-8 infection was examined in human conjunctival epithelial (HCjE) cells, a natural target for HHV-8 infection. Human conjunctival (HCjE) cells were pre-incubated with G1, G2 or control peptide (Cp) were infected with HHV-8 virions for 48 h at 37° C. After incubation the cells were washed thoroughly to remove unbound viruses. GFP-expression of HHV-8 was quantitated by determining relative fluorescence units (RFU) using a 96-well fluorescence reader (TECAN). Emission of fluorescence indicates virus infection. […] This was confirmed by examination of individual cells by fluorescence microscopy.
Viral replication in HCjE cells was visualized under fluorescent microscope (Zeiss Axiovert 100) in cells that were pretreated with G1, G2 or Cp, as described above (FIG. 5D). Asterisks indicate significant difference from controls and/or treatments (P<0.05, t test) and error bars represent SD. […] G1 may have some activity but the virus can possibly overcome it easily.

HSV-1 (KOS) = test: Mouse cornea model of HSV-1 infection (immunohistochemistry); format: in vivo, BALB/c mice
Procedure: BALB/c mice with pre-scarred corneal upper surface were treated with PBS-based eye drops containing 0.5 mM G1, G2, or control peptide followed by inoculation of HSV-1 (KOS). Mice were sacrificed after 4 and 7 days for HSV-1 detection. Immunohistochemistry was performed as described by Akhtar et al., Invest. Ophthalmol. Vis. Sci. 49:4026-4035 (2008). Briefly, tissue sections were hydrated with distilled water and antigen retrieval was performed using DAKO Target Retrieval Solution 10× concentrate (DAKO, Carpinteria, Calif.). Nonspecific staining was blocked using H2O2 solution for 10 minutes followed by a protein block for 10 minutes. Sections were incubated with HSV-1 gD specific antiserum (1:100 dilution) at room temperature for 1 hr followed by a 40-minute incubation with the secondary antibody (HRP-conjugated goat anti-rabbit IgG, 1:500; Sigma, St. Louis, Mo.). Expression of gD was detected using the DAKO Envision^+ kit. Confocal and differential interference contrast (DIC) image acquisition was conducted with an SB2-AOBS confocal microscope (Leica, Solms, Germany).
Immunohistochemistry was used to locate HSV-1 glycoprotein D (gD) expression in the cornea pre-treated with either a control peptide, G1 or G2 followed by HSV-1 infection. 100 μl of G1, G2, or Cp (control) peptide at 0.5 mM concentration was poured into the mouse cornea as a prophylactic “eye drop” followed by an infection with HSV-1 (KOS) at 10^6 PFU. At 4 or 7 days post infection, immunohistochemistry was performed using anti-HSV-1 gD polyclonal antibody.

HSV-1 (KOS) gL86 = test: HSV-1 entry into HeLa cells (ONPG and X-gal); format: cell-based, herpes simplex virus type-1; settings: for blocking of HSV-1 entry/infection: HeLa cells, 60 min pre-treatment, 25 pfu/cell, 6 hr
Procedure: HSV-1 entry was assayed as described in Shukla et al., Cell 99:13-22 (1999). CHO-K1 cells were grown in 6-well plates to subconfluence and then transfected with 2.5 μg of expression plasmids for gD receptors nectin-1 (pBG38), HVEM (pBec10), 3-OST-3 isoform (pDS43), or pCDNA3.1 (empty vector) using LipofectAMINE (Gibco/BRL). At 16 h post-transfection, the cells were replated into 96-well dishes for pre-incubation with peptides at different concentrations for 60 min at room temperature. In parallel, natural target cells (HeLa, CF, and RPE) were also pre-treated with the peptides for the same duration. In all cases, unbound peptides were removed after washing 3× with PBS. Thereafter, cells were infected for 6 h with a recombinant virus, HSV-1 (KOS) gL86, at multiple plaque forming units (PFUs) and β-galactosidase assays were performed using either a soluble substrate o-nitrophenyl-β-D-galactopyranoside (ONPG at 3.0 mg/ml; ImmunoPure, Pierce) or X-gal (Sigma). For the soluble substrate, the enzymatic activity was measured at 410 nm using a micro-plate reader (Spectra Max 190, Molecular Devices, Sunnyvale, Calif.). For the X-gal assay, cells were fixed (2% formaldehyde and 0.2% glutaraldehyde) and permeabilized (2 mM MgCl2, 0.01% deoxycholate, and 0.02% nonidet NP-40 (Sigma)). 1 ml of β-galactosidase reagent (1.0 mg/ml X-gal in ferricyanide buffer) was added to each well and incubated at 37° C. for 90 min before the cells were examined using bright field microscopy under the 20× objectives of the inverted microscope (Zeiss Axiovert 100 M).
The ability of the G1 and G2 peptides to block HSV-1 entry into natural target cells (HeLa and primary cultures of human CF) was compared. A similar dosage response curve was generated when HeLa (FIG. 2A) or CF (FIG. 2B) were pre-treated with G1 or G2 peptides during HSV-1 entry. […] HeLa cells (FIG. 2A) and primary cultures of human corneal fibroblasts (CF) (FIG. 2B) were tested. Cells in 96-well plates were pre-treated for 60 min with indicated mM concentrations of G1, G2, or Cp peptides. Mock-treated cells (abbreviated as C) served as a control. Pretreated cells were infected with a β galactosidase-expressing recombinant virus HSV-1 (KOS) HSV-1 gL86 (25 pfu/cell) for 6 hr. Viral entry was quantitated as described above in reference to FIG. 1. Confirmation of HSV-1 entry blocking activity of G1, G2, and control (Cp) peptides on a per cell basis was obtained after cells were infected as described above followed by X-gal (1.0 mg/ml) staining (Right panels), which yields an insoluble blue product upon hydrolysis by β-galactosidase expressed from the input viral genomes. […] Microscopy was performed using a 20× objective of Zeiss Axiovert 100.

[2] = 100 μl eye drop at 0.5 mM before 10^6 PFU, 4 and 7 days post infection

Sequence | GFP-expression of HHV-8 (RFU) [1] | fluorescence from GFP virus replication (microscopy) [1] | HSV-1 protein (gD) expression in cornea (HSV-1 (KOS); [2]) | state of corneal epithelium (HSV-1 (KOS); [2]) | blocking of HSV-1 entry/infection (HSV-1 (KOS) gL86) | effectiveness in blocking entry compared with G1 (HSV-1 (KOS) gL86; in virtually all cases (FIGS. 1 and 2)) | HSV-1 gD staining in cornea (HSV-1 (KOS); 0.5 mM eye drop, day 4) | corneal inflammation (HSV-1 (KOS); 0.5 mM eye drop, day 4) | HSV-1 staining in cornea (HSV-1 (KOS); 0.5 mM eye drop, day 7) | state of corneal epithelium (HSV-1 (KOS); 0.5 mM eye drop, day 7)
MPRRRRIRRRQK [G2, MPRRRRIRRRQK] | relatively low GFP-expression | did not show fluorescence | virtually no HSV-1 protein expression was detected | epithelium remained intact | effective in blocking infection of individual cells | slightly more effective in blocking entry than G1 |  |  |  | 
RVCGSIGKEVLG [Cp, reference compound] |  | fluorescence was more easily seen |  |  | no effect on HSV-1 entry |  | significant staining for HSV-1 gD | severe chronic inflammation | gone | damage to the corneal epithelium was still evident
LRSRTKIIRIRH [G1, LRSRTKIIRIRH] | not found to be statistically significant | fluorescence was more easily seen | virtually no HSV-1 protein expression was detected | epithelium remained intact | effective in blocking infection of individual cells |  |  |  |  | 
